The supplement of paper PMC10307832

Experiments:
Assay in all cases: relative viability (nuclei count vs DMSO), 5 days (fraction); higher = more cells survive
Ibrutinib + Trametinib = compound: C=CC(=O)N1CCC[C@@H](n2nc(-c3ccc(Oc4ccccc4)cc3)c3c(N)ncnc32)C1 [Ibrutinib] + CC(=O)Nc1cccc(-n2c(=O)n(C3CC3)c(=O)c3c(Nc4ccc(I)cc4F)n(C)c(=O)c(C)c32)c1 [Trametinib] (partner 0.02 µM)
Procedure, shortened: (§1)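 Relative viability is defined as nuclei in treated wells over nuclei in vehicle wells. Duplicate plates were run and medians reported. Lung cancer cell lines in 1536-well plates were dosed by pin tool one day after seeding, with one drug or with a fixed anchor-drug dose plus five library-drug doses (not always all listed) in √10 steps, and nuclei were counted after 5 days.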

Ibrutinib + Foretinib = compound: C=CC(=O)N1CCC[C@@H](n2nc(-c3ccc(Oc4ccccc4)cc3)c3c(N)ncnc32)C1 [Ibrutinib] + COc1cc2c(Oc3ccc(NC(=O)C4(C(=O)Nc5ccc(F)cc5)CC4)cc3F)ccnc2cc1OCCCN1CCOCC1 [Foretinib] (partner 0.25 µM)
Procedure, shortened: as §1

Ibrutinib + Tozasertib = compound: C=CC(=O)N1CCC[C@@H](n2nc(-c3ccc(Oc4ccccc4)cc3)c3c(N)ncnc32)C1 [Ibrutinib] + Cc1cc(Nc2cc(N3CCN(C)CC3)nc(Sc3ccc(NC(=O)C4CC4)cc3)n2)n[nH]1 [Tozasertib] (partner 0.1 µM)
Procedure, shortened: as §1

Ibrutinib + Dasatinib = compound: C=CC(=O)N1CCC[C@@H](n2nc(-c3ccc(Oc4ccccc4)cc3)c3c(N)ncnc32)C1 [Ibrutinib] + Cc1nc(Nc2ncc(C(=O)Nc3c(C)cccc3Cl)s2)cc(N2CCN(CCO)CC2)n1 [Dasatinib] (partner 0.075 µM)
Procedure, shortened: as §1

Cell Line	relative viability (Ibrutinib + Trametinib; first compound 0.005 µM)	relative viability (Ibrutinib + Trametinib; first compound 0.01581 µM)	relative viability (Ibrutinib + Trametinib; first compound 0.05 µM)	relative viability (Ibrutinib + Trametinib; first compound 0.1581 µM)	relative viability (Ibrutinib + Trametinib; first compound 0.5 µM)	relative viability (Ibrutinib + Foretinib; first compound 0.005 µM)	relative viability (Ibrutinib + Foretinib; first compound 0.01581 µM)	relative viability (Ibrutinib + Foretinib; first compound 0.05 µM)	relative viability (Ibrutinib + Foretinib; first compound 0.1581 µM)	relative viability (Ibrutinib + Foretinib; first compound 0.5 µM)	relative viability (Ibrutinib + Tozasertib; first compound 0.005 µM)	relative viability (Ibrutinib + Tozasertib; first compound 0.01581 µM)	relative viability (Ibrutinib + Tozasertib; first compound 0.05 µM)	relative viability (Ibrutinib + Tozasertib; first compound 0.1581 µM)	relative viability (Ibrutinib + Tozasertib; first compound 0.5 µM)	relative viability (Ibrutinib + Dasatinib; first compound 0.005 µM)	relative viability (Ibrutinib + Dasatinib; first compound 0.01581 µM)	relative viability (Ibrutinib + Dasatinib; first compound 0.05 µM)	relative viability (Ibrutinib + Dasatinib; first compound 0.1581 µM)	relative viability (Ibrutinib + Dasatinib; first compound 0.5 µM)
LCLC-97TM1	0.192	0.172	0.202	0.192	0.155	0.945	0.881	1	1	0.843	0.601	0.426	0.216	0.241	0.224	0.951	0.804	0.973	0.703	0.782
EKVX	0.322	0.343	0.392	–	0.215	0.835	0.762	0.802	0.617	0.232	0.427	0.332	0.4	0.426	0.269	0.525	0.455	0.481	0.489	0.352
PC-14	0.735	0.647	0.643	0.818	0.254	1.1	0.907	–	1.02	0.985	0.646	0.536	0.568	0.556	0.452	–	0.228	0.209	0.312	0.0569
NCI-H1355	–	0.395	0.363	0.433	0.368	0.863	0.88	0.848	0.981	0.793	0.601	0.518	0.517	0.62	0.491	0.527	0.647	0.718	0.623	0.677
NCI-H2009	0.208	0.252	0.253	0.306	0.234	1.31	1.21	1.14	1.19	1.26	0.737	0.778	0.77	0.788	0.831	0.3	0.254	0.319	0.267	0.386
HARA	0.719	0.633	0.638	0.78	0.262	0.917	0.717	0.705	0.933	0.403	0.0994	0.117	0.0863	0.0992	0.096	0.288	0.235	0.223	0.236	0.194
H3255	0.461	0.531	–	0.624	0.378	0.66	0.986	0.711	0.993	0.53	0.729	0.615	0.581	0.672	0.312	0.35	0.346	0.276	0.292	0.242
SW 1573	–	0.462	0.618	0.547	0.661	0.816	0.733	1.01	0.844	0.879	0.189	0.169	0.195	0.174	0.184	0.647	0.494	0.477	0.588	0.514
SW 900	0.86	0.654	0.803	0.901	0.603	–	–	0.861	0.683	0.836	–	–	0.663	0.627	0.59	–	–	0.683	0.554	0.578
NCI-H1666	0.809	0.849	0.832	0.938	0.744	0.981	0.919	0.919	0.988	0.74	0.628	0.59	0.602	0.583	0.536	0.841	0.807	0.803	0.896	0.706
NCI-H1993	0.487	0.571	0.518	0.617	0.398	0.74	0.72	0.759	0.783	0.62	0.594	0.529	0.541	0.566	0.524	0.504	0.658	0.532	0.53	0.56
HCC-366	0.34	0.366	0.317	0.394	0.391	1.04	0.909	0.958	0.866	0.881	0.127	0.116	0.107	0.118	0.0964	0.734	0.569	0.633	0.538	0.597
EMC-BAC-2	0.836	0.895	–	–	1.03	0.88	0.894	–	0.969	0.797	0.303	0.295	0.31	0.325	0.286	0.314	0.316	0.346	0.343	0.296
NCI-H1975	0.274	0.303	0.287	0.302	0.213	0.973	0.891	0.819	0.96	0.544	0.82	0.688	0.695	0.806	0.403	0.349	0.293	0.263	0.345	0.134
NCI-H1944	0.423	0.369	0.395	0.363	0.374	0.891	0.734	0.72	0.879	0.605	0.247	0.217	0.21	0.24	0.198	0.21	0.18	0.206	0.178	0.193
NCI-H1395	0.912	1.13	1.16	1.04	1.01	0.913	0.922	1.02	0.982	0.907	0.77	0.688	0.782	0.74	0.776	0.419	0.401	0.383	0.392	0.417
NCI-H650	0.921	0.967	1.01	1.06	0.976	1.07	0.94	1.09	1.25	1.17	0.783	0.672	0.758	0.808	0.782	0.408	0.484	0.378	0.491	0.465
